Source: PubChem BioAssay AID248 (DTP/NCI, 2004)
Inconclusive results and toxic doses are left out. Cut-off read from the data, not from the text of the source: active = T/C of 150% or more; inactive = T/C below 125%.

Tested on: L1210 leukemia ip in BDF1 mice, survival T/C
Assay: NCI In Vivo Anticancer Drug Screen. Data for tumor model L1210 Leukemia (intraperitoneal) in B6D2F1 (BDF1) mice
Settings: endpoint: mean survival time, higher = longer survival
How it was run: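 Mice bearing the transplanted tumor received compound or vehicle. Survival of the treated group was divided by that of the vehicle-treated control group to give the ratio.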

[1] = dose: 100.0 mg/kg/injection, schedule: Q04DX003 (ip), vehicle: Klucel (hydroxypropylcellulose) (HPC)
[2] = dose: 200.0 mg/kg/injection, schedule: Q04DX003 (ip), vehicle: Klucel (hydroxypropylcellulose) (HPC)
[3] = dose: 400.0 mg/kg/injection, schedule: Q04DX003 (ip), vehicle: Klucel (hydroxypropylcellulose) (HPC)
[4] = dose: 100.0 mg/kg/injection, schedule: Q01DX001 (ip), vehicle: carboxymethylcellulose (CMC)
[5] = dose: 100.0 mg/kg/injection, schedule: Q01DX009 (ip), vehicle: Klucel (hydroxypropylcellulose) (HPC)
[6] = dose: 200.0 mg/kg/injection, schedule: Q01DX001 (ip), vehicle: carboxymethylcellulose (CMC)
[7] = dose: 200.0 mg/kg/injection, schedule: Q01DX009 (ip), vehicle: Klucel (hydroxypropylcellulose) (HPC)
[8] = dose: 400.0 mg/kg/injection, schedule: Q01DX001 (ip), vehicle: carboxymethylcellulose (CMC)
[9] = dose: 400.0 mg/kg/injection, schedule: Q01DX009 (ip), vehicle: Klucel (hydroxypropylcellulose) (HPC)
[10] = dose: 50.0 mg/kg/injection, schedule: Q01DX009 (ip), vehicle: Klucel (hydroxypropylcellulose) (HPC)

Measured: T/C

Nc1nccc2snnc12
inactive: dose: 100.0 mg/kg/injection, schedule: Q01DX001 (ip), vehicle: Klucel (hydroxypropylcellulose) (HPC) 91 % of control | [1] 94 % of control | dose: 200.0 mg/kg/injection, schedule: Q01DX001 (ip), vehicle: Klucel (hydroxypropylcellulose) (HPC) 89 % of control | [2] 104 % of control | dose: 400.0 mg/kg/injection, schedule: Q01DX001 (ip), vehicle: Klucel (hydroxypropylcellulose) (HPC) 97 % of control | [3] 100 % of control

CSC(C)(S(C)(=O)=O)S(C)(=O)=O
inactive: dose: 75.0 mg/kg/injection, schedule: Q01DX001 (ip), vehicle: saline with Tween-80 102 % of control | dose: 150.0 mg/kg/injection, schedule: Q01DX001 (ip), vehicle: saline with Tween-80 96 % of control | dose: 300.0 mg/kg/injection, schedule: Q01DX001 (ip), vehicle: saline with Tween-80 98 % of control

CC1(C)N=C(N)N=C(N)N1c1ccc(OCC(=O)N2CCOCC2)cc1
inactive: dose: 12.5 mg/kg/injection, schedule: Q01DX009 (ip), vehicle: saline 106 % of control | dose: 25.0 mg/kg/injection, schedule: Q01DX009 (ip), vehicle: saline 102 % of control | dose: 50.0 mg/kg/injection, schedule: Q01DX009 (ip), vehicle: saline 95 % of control | dose: 100.0 mg/kg/injection, schedule: Q01DX009 (ip), vehicle: saline 96 % of control

O=C(OC1CC2CC1C1CCCC21)c1ccc([N+](=O)[O-])cc1 (stereo not given)
inactive: dose: 50.0 mg/kg/injection, schedule: Q01DX001 (ip), vehicle: carboxymethylcellulose (CMC) 90 % of control | [4] 87 % of control | [5] 104 % of control | [6] 92 % of control | [7] 100 % of control | [8] 95 % of control | [9] 97 % of control

Cc1c(N=CN(C)C)c(=O)n(-c2ccccc2)n1C
inactive: [5] 94 % of control | [1] 110 % of control | [7] 93 % of control | [2] 105 % of control | [9] 100 % of control | [3] 107 % of control

N#Cc1ccccc1CC(O)(c1ccccc1)c1ccccc1
inactive: dose: 50.0 mg/kg/injection, schedule: Q01DX001 (ip), vehicle: saline 96 % of control | dose: 100.0 mg/kg/injection, schedule: Q01DX001 (ip), vehicle: saline 102 % of control | dose: 200.0 mg/kg/injection, schedule: Q01DX001 (ip), vehicle: saline 93 % of control | dose: 400.0 mg/kg/injection, schedule: Q01DX001 (ip), vehicle: saline 91 % of control

CC1c2ccccc2C(C)c2c1cc(F)c1ccccc21 (stereo not given)
inactive: dose: 100.0 mg/kg/injection, schedule: Q04DX002 (ip), vehicle: other 115 % of control | dose: 200.0 mg/kg/injection, schedule: Q04DX002 (ip), vehicle: other 93 % of control | dose: 400.0 mg/kg/injection, schedule: Q04DX002 (ip), vehicle: other 101 % of control

CCN(CC)C(C)CN1c2ccccc2Sc2ccccc21 (stereo not given)
inactive: dose: 25.0 mg/kg/injection, schedule: Q01DX009 (ip), vehicle: Klucel (hydroxypropylcellulose) (HPC) 97 % of control | dose: 25.0 mg/kg/injection, schedule: Q04DX003 (ip), vehicle: saline 88 % of control | [10] 94 % of control | [5] 103 % of control | dose: 100.0 mg/kg/injection, schedule: Q04DX003 (ip), vehicle: saline 96 % of control | dose: 200.0 mg/kg/injection, schedule: Q04DX003 (ip), vehicle: saline 93 % of control

N#CSCc1cc([N+](=O)[O-])c(CSC#N)c([N+](=O)[O-])c1Cl
inactive: dose: 25.0 mg/kg/injection, schedule: Q01DX009 (ip), vehicle: other 89 % of control | dose: 100.0 mg/kg/injection, schedule: Q04DX003 (ip), vehicle: carboxymethylcellulose (CMC) 87 % of control | dose: 200.0 mg/kg/injection, schedule: Q04DX003 (ip), vehicle: carboxymethylcellulose (CMC) 93 % of control

CC1=CCCC(C)C12CCC(C(C)(C)O)C2 (stereo not given)
inactive: dose: 50.0 mg/kg/injection, schedule: Q01DX009 (ip), vehicle: other 104 % of control | dose: 100.0 mg/kg/injection, schedule: Q01DX009 (ip), vehicle: other 98 % of control | dose: 100.0 mg/kg/injection, schedule: Q04DX003 (ip), vehicle: saline sonified 103 % of control | dose: 200.0 mg/kg/injection, schedule: Q01DX009 (ip), vehicle: other 100 % of control | dose: 200.0 mg/kg/injection, schedule: Q04DX003 (ip), vehicle: saline sonified 107 % of control

CN1CCC(C[CH2][Sn]([c]2ccccc2)([c]2ccccc2)[c]2ccccc2)CC1
inactive: dose: 25.0 mg/kg/injection, schedule: Q04DX002 (ip), vehicle: saline with Tween-80 100 % of control

Nc1ccc(F)cc1[N+](=O)[O-]
inactive: [10] 106 % of control | [5] 93 % of control | [1] 105 % of control | [7] 95 % of control | [2] 94 % of control | [9] 90 % of control | [3] 91 % of control

CCC(CO)N=Cc1ccccc1O.CCC(CO)N=Cc1ccccc1O.[Ni] (stereo not given)
inactive: dose: 9.5 mg/kg/injection, schedule: Q01DX001 (ip), vehicle: other 102 % of control | dose: 19.0 mg/kg/injection, schedule: Q01DX001 (ip), vehicle: other 102 % of control | dose: 38.0 mg/kg/injection, schedule: Q01DX001 (ip), vehicle: other 94 % of control | dose: 75.0 mg/kg/injection, schedule: Q01DX001 (ip), vehicle: other 111 % of control

O=C(NC1CCCCC1)Oc1cc(CCl)cc(CCl)c1
inactive: [10] 112 % of control | [5] 112 % of control

CN(C)CCC(O)(c1ccccc1)c1ccccc1Cl (stereo not given)
inactive: [4] 90 % of control | [6] 97 % of control | [8] 94 % of control

CCC(C)(C)c1cccc(C(=O)O)c1O
inactive: [4] 104 % of control | [6] 93 % of control

O=c1oc(-c2cccc([N+](=O)[O-])c2)nc2cc(Cl)ccc12
inactive: dose: 50.0 mg/kg/injection, schedule: Q04DX002 (ip), vehicle: saline with Tween-80 90 % of control | dose: 100.0 mg/kg/injection, schedule: Q04DX002 (ip), vehicle: saline with Tween-80 93 % of control | dose: 200.0 mg/kg/injection, schedule: Q04DX002 (ip), vehicle: saline with Tween-80 93 % of control | dose: 400.0 mg/kg/injection, schedule: Q04DX002 (ip), vehicle: saline with Tween-80 107 % of control

Cc1ccc(S(=O)(=O)N(C)c2cc(Cl)c(C#N)cc2Cl)cc1
inactive: [1] 97 % of control | [2] 97 % of control | [3] 100 % of control

CNC1(c2ccccc2)CC1
inactive: dose: 75.0 mg/kg/injection, schedule: Q04DX002 (ip), vehicle: saline 100 % of control | dose: 150.0 mg/kg/injection, schedule: Q04DX002 (ip), vehicle: saline 87 % of control

O=C1c2cc(-c3ccccc3)c(-c3ccccc3)cc2C(c2ccccc2)(c2ccccc2)C1Br (stereo not given)
inactive: dose: 100.0 mg/kg/injection, schedule: Q04DX003 (ip), vehicle: saline with Tween-80 94 % of control | dose: 200.0 mg/kg/injection, schedule: Q04DX003 (ip), vehicle: saline with Tween-80 91 % of control | dose: 400.0 mg/kg/injection, schedule: Q04DX003 (ip), vehicle: saline with Tween-80 93 % of control

OCc1cccs1
inactive: [5] 108 % of control | [1] 97 % of control | [7] 94 % of control | [2] 97 % of control | [9] 103 % of control | [3] 97 % of control

Cn1c(=O)c2ccccc2c2ccccc21
inactive: [5] 99 % of control | [1] 100 % of control | [7] 97 % of control | [2] 100 % of control | [9] 100 % of control | [3] 105 % of control
